The source of these data is article PMC12811997 (Chemmedchem, 2025).

Values after ≈ are worked out from the molar mass of the structure shown. Like-named read-outs stand apart in the source and are kept apart here.

The target in data set [1] is T1, SARS‐CoV‐2 RdRp complex (nsp12, nsp7, nsp8) (Severe acute respiratory syndrome coronavirus 2, UniProt P0DTD1). Also noted: method as in PMID 39140451. The conditions noted are these: at 10 μM concentration of screened compound; ref [10]; cited from earlier work.
The nature of a further data set: in vitro. The conditions noted are these: human.
A further data set in a line: Kinetic solubility. The note with it: for solubility kinetic: kinetic from dmso stock.
The subject of a further data set is SARS‐CoV‐2. Briefly: microbe, parasite or virus in culture. The format is cell-based. The conditions noted are these: Calu‐3 cells infected with SARS‐CoV‐2, concentration required to reduce viral cytopathic effect by 50%, read-out: EC50.
Data set [2] addresses T1, SARS‐CoV‐2 RdRp complex (nsp12, nsp7, nsp8). Kind of data set: biochemical. The format is biochemical. The note with it: AUC with compound / AUC of noninhibited reaction; for remaining activity at 10 µM: read-out: RA ± SD (residual activity of RdRp), at 10 μM concentration of screened compounds.
A short description of data set [3]: Chemical stability in aqueous solution. The data set is classed as physicochemical.
The subject of a further data set is Calu‐3 cells. The note with it: read-out: CC50 ± SE, concentration required to reduce cell viability by 50%.
[4] abbreviates: Severe acute respiratory syndrome coronavirus 2.

Experimental for Calu‐3 cells: (§1) Cytotoxicity was evaluated by incubating the same two‐fold serial dilutions of each compound with Calu‐3 cells as above but without the virus. Following 3 days of incubation at 37 °C in 5% CO2, the cell viability was determined by the addition of XTT solution as above. The compound cytotoxic concentrations resulting in a 50% reduction of absorbance (CC50) were calculated from plots of the percentage of absorbance versus log10 of drug concentration as above.
Experimental for in vitro: as §1

Turning to `O=C(Nc1cccc(C(F)(F)F)c1)Nc1nc2cc(Cl)c(Cl)cc2[nH]1` [Compound 3], the “RA (residual activity of RdRp)” value in data set [1] is recorded as 49 ± 6%.

Broadly, the kinetic solubility is solubility judged after dilution from a stock solution rather than from solid. What is called EC50 is the concentration that produces a half-maximal response. As for `O=C(Nc1cc(Cl)cc(Cl)c1)Nc1ccc(CN2CCOC(=O)C2)c(C(F)(F)F)c1` [Compound 64, 1‐(3,5‐Dichlorophenyl)‐3‐(4‐((2‐Oxomorpholino)Methyl)‐3‐(Trifluoromethyl)Phenyl)Urea], the CC50 at 3 days in “in vitro” was 38 ± 8.2 µM. Besides, in the data set “Kinetic solubility”, the kinetic solubility stood at 21 ± 2 µM (≈ 9.71 µg/mL). Moreover, the “increase in kinetic solubility compared with compound 39” value in the data set “Kinetic solubility” (relative to compound 39) is given as 5 fold. Further, the half-maximal effective concentration (EC50) in the data set with SARS‐CoV‐2 (setting [4]) is over 38 µM. Besides, the remaining activity at 10 µM in data set [2] was 39 ± 12%. Besides, in data set [3], the chemical stability result is “chemically unstable and underwent rapid hydrolysis in aqueous solution”.

As for `O=C(Nc1cc(Cl)cc(Cl)c1)Nc1nc2ccc(C(F)(F)F)cc2[nH]1` [Compound 4], the “RA (residual activity of RdRp)” value in data set [1] is recorded as 29 ± 2%.

`FC(F)(F)c1ccc2nc(-c3nc4cc(Cl)c(Cl)cc4[nH]3)[nH]c2c1` [Compound 2]: in data set [1], the “RA (residual activity of RdRp)” value is recorded as 43 ± 6%.

For the compound “Ethyl 1‐(4‐(3‐(3,5‐Dichlorophenyl)Ureido)‐2‐(Trifluoromethyl)Benzyl)Piperidine‐4‐Carboxylate Hydrochloride [Compound 67]”, the concentration giving a half-maximal response (EC50) with SARS‐CoV‐2 was over 9 µM. In addition, the “RA ± SD (residual activity of RdRp)” value in data set [2] (at 10 μM concentration of screened compounds) worked out at 51 ± 11%. Also, in the data set with Calu‐3 cells, the CC50 was 9 ± 0.38 µM.

Turning to `O=C(Nc1cc(Cl)cc(Cl)c1)Nc1cccc(C(F)(F)F)c1` [Compound 1, 1‐(3,5‐dichlorophenyl)‐3‐(3‐(trifluoromethyl)phenyl)urea], the “RA (residual activity of RdRp)” value in data set [1] is reported as 45%.

`CN1CCN(Cc2ccc(NC(=O)Nc3cc(Cl)cc(Cl)c3)cc2C(F)(F)F)CC1.Cl` [Compound 40, 1‐(3,5‐Dichlorophenyl)‐3‐(4‐((4‐Methylpiperazin‐1‐Yl)Methyl)‐3‐(Trifluoromethyl)Phenyl)Urea Hydrochloride]: in “in vitro”, the CC50 at 3 days was found to be 13 ± 0.8 µM. In “Kinetic solubility” (as restated in Conclusions), this compound came in with a kinetic solubility of 43.5 µM L^−1. This compound also registered a kinetic solubility in “Kinetic solubility” of 43.5 ± 0.8 µM. In addition, in the data set with SARS‐CoV‐2 (setting [4]), the EC50 is over 13 µM. Further, the remaining activity at 10 µM in data set [2] is about 65%.

`Cl.O=C(Nc1cc(Cl)cc(Cl)c1)Nc1ccc(C(F)(F)F)c(CN2CCOCC2)c1` [Compound 47, 1‐(3,5‐Dichlorophenyl)‐3‐(3‐(Morpholinomethyl)‐4‐(Trifluoromethyl)Phenyl)Urea Hydrochloride] registered a CC50 at 3 days in “in vitro” of 5.3 ± 0.48 µM. This compound yielded a kinetic solubility in the data set “Kinetic solubility” of under 2 µM. Moreover, in the data set with SARS‐CoV‐2 (setting [4]), the EC50 is over 5.3 µM. Also, the remaining activity at 10 µM in data set [2] is 65 ± 5%.
